Experimental data reported in patent US8183243B2, “Melanocortin receptor agonists” (LG Life Sciences Ltd., priority 2008, dated 2012).

Molecular target: T1, MC4R (Homo sapiens, UniProt P32245)
T1 construct: expressed in transfected cells; host or cells: HEK (Human Embryonic Kidney) permanent expression cell line HEK MC4R-Luc, co-expressing CRE-luciferase
Test: MCR agonistic activity (luciferase assay / cAMP accumulation assay) on MC4R
Type: cell-based
Conditions: HEK cell lines expressing MC4R; method A (CRE-luciferase) or B (cAMP accumulation), not said which; read-out: EC50 value, agonistic activity to MC4R (range per group of Examples)
Procedure, shortened: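 HEK cells stably expressing MC4R with a CRE-luciferase reporter treated 5 hours at 37 °C with serially diluted agonist (≤1% DMSO); luminescence expressed relative to 10 nM NDP-MSH, EC50 at half-maximal signal. Alternatively, cAMP measured after 30 minutes with compound plus 500 μM IBMX by [3H]-cAMP competition binding.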

T1 sequence (P32245 whole entry, species assumed): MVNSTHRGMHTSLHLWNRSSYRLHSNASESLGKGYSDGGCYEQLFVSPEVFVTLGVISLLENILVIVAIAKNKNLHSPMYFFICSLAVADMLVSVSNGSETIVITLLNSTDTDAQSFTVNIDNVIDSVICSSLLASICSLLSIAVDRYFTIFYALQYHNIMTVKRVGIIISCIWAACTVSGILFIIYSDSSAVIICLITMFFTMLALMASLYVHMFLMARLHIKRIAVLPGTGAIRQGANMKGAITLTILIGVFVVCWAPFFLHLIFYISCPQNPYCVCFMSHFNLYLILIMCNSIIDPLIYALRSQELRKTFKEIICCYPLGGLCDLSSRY

Row | EC50 | Compound
1 | 10 to 100 nM | CN1CCN(C(=O)[C@@H]2C[C@H](N(C(=O)[C@@H]3CCCO3)[C@H]3CC[C@@H](C)CC3)CN2C(=O)[C@@H]2CN(C3CC3)C[C@H]2c2ccc(Cl)cc2)CC1 [Example 56, (2S)-N-{(3S,5S)-1-{[(3S,4R)-4-(4-chlorophenyl)-1-cyclopropylpyrrolidin-3-yl]carbonyl}-5-[(4-methylpiperazin-1-yl)carbonyl]pyrrolidin-3-yl}-N-(cis-4-methylcyclohexyl)tetrahydrofuran-2-carboxamide]
2 | 10 to 100 nM | CN1CCN(C(=O)[C@H]2C[C@H](N(C(=O)[C@@H]3CCCO3)[C@H]3CC[C@@H](C)CC3)CN2C(=O)[C@@H]2CN(C3CC3)C[C@H]2c2ccc(Cl)cc2)CC1 [Example 57, (2S)-N-{(3S,5R)-1-{[(3S,4R)-4-(4-chlorophenyl)-1-cyclopropylpyrrolidin-3-yl]carbonyl}-5-[(4-methylpiperazin-1-yl)carbonyl]pyrrolidin-3-yl}-N-(cis-4-methylcyclohexyl)tetrahydrofuran-2-carboxamide]
3 | 0.1 to 10 nM | CN1CCN(C(=O)[C@@H]2C[C@H](N(C(=O)[C@@H]3CCCO3)C3CCC(C)(C)CC3)CN2C(=O)[C@@H]2CN(c3ccccn3)C[C@H]2c2ccc(Cl)cc2)CC1 [Example 65, (2S)-N-{(3S,5S)-1-{[(3S,4R)-4-(4-chlorophenyl)-1-pyridine-2-ylpyrrolidin-3-yl]carbonyl}-5-[(4-methylpiperazin-1-yl)carbonyl]pyrrolidin-3-yl}-N-(4,4-dimethylcyclohexyl)tetrahydrofuran-2-carboxamide]
4 | 0.1 to 10 nM | CN1CCN(C(=O)[C@@H]2C[C@H](N(C(=O)[C@@H]3CCCO3)[C@H]3CC[C@@H](C)CC3)CN2C(=O)[C@@H]2CN(c3ccccn3)C[C@H]2c2ccc(F)cc2F)CC1 [Example 68, (2S)-N-{(3S,5S)-1-{[(3S,4R)-4-(2,4-difluorophenyl)-1-pyridine-2-ylpyrrolidin-3-yl]carbonyl}-5-[(4-methylpiperazin-1-yl)carbonyl]pyrrolidin-3-yl}-N-(cis-4-methylcyclohexyl)tetrahydrofuran-2-carboxamide]
5 | 0.1 to 10 nM | CN1CCN(C(=O)[C@@H]2C[C@H](N(C(=O)[C@@H]3CCCO3)[C@H]3CC[C@@H](C)CC3)CN2C(=O)[C@@H]2CN(c3ccc(C#N)cn3)C[C@H]2c2ccc(Cl)cc2)CC1 [Example 69, (2S)-N-{(3S,5S)-1-{[(3S,4R)-4-(4-chlorophenyl)-1-(5-cyanopyridine-2-yl)pyrrolidin-3-yl]carbonyl}-5-[(4-methylpiperazin-1-yl)carbonyl]pyrrolidin-3-yl}-N-(cis-4-methylcyclohexyl)tetrahydrofuran-2-carboxamide]
6 | 1000 to 10000 nM | Cc1ccccc1N1C[C@@H](C(=O)N2C[C@@H](N(C(=O)[C@@H]3CCCO3)[C@H]3CC[C@@H](C)CC3)C[C@H]2C(=O)N2CCN(C)CC2)[C@H](c2ccc(Cl)cc2)C1 [Example 71, (2S)-N-{(3S,5S)-1-{[(3S,4R)-4-(4-chlorophenyl)-1-(2-methylphenyl)pyrrolidin-3-yl]carbonyl}-5-[(4-methylpiperazin-1-yl)carbonyl]pyrrolidin-3-yl}-N-(cis-4-methylcyclohexyl)tetrahydrofuran-2-carboxamide]
7 | 0.1 to 10 nM | CN1CCN(C(=O)[C@@H]2C[C@H](N(C(=O)[C@@H]3CCCO3)[C@H]3CC[C@@H](C)CC3)CN2C(=O)[C@@H]2CN(c3ccc(=O)n(C)n3)C[C@H]2c2ccc(Cl)cc2)CC1 [Example 72, (2S)-N-{(3S,5S)-1-{[(3S,4R)-4-(4-chlorophenyl)-1-(1-methyl-6-oxo-1,6-dihydropyridazine-3-yl)pyrrolidin-3-yl]carbonyl}-5-[(4-methylpiperazin-1-yl)carbonyl]pyrrolidin-3-yl}-N-(cis-4-methylcyclohexyl)tetrahydrofuran-2-carboxamide]
8 | 0.1 to 10 nM | CN1CCN(C(=O)[C@@H]2C[C@H](N(C(=O)[C@@H]3CCCO3)[C@H]3CC[C@@H](C)CC3)CN2C(=O)[C@@H]2CN(c3ccc(=O)[nH]n3)C[C@H]2c2ccc(Cl)cc2)CC1 [Example 73, (2S)-N-{(3S,5S)-1-{[(3S,4R)-4-(4-chlorophenyl)-1-(6-oxo-1,6-dihydropyridazine-3-yl)pyrrolidin-3-yl]carbonyl]-5-[(4-methylpiperazin-1-yl)carbonyl]pyrrolidin-3-yl}-N-(cis-4-methylcyclohexyl)tetrahydrofuran-2-carboxamide]

The next lines start with the compound.

Row | Compound | EC50
9 | CC(=O)N(C1CCC(C)CC1)[C@H]1C[C@H](C(=O)N2CCN(C)CC2)N(C(=O)[C@@H]2CN(C3CCOCC3)C[C@H]2c2ccc(Cl)cc2)C1 (stereo partly drawn) [Example 54, N-{(3S,5R)-1-{[(3S,4R)-4-(4-chlorophenyl)-1-(tetrahydro-2H-pyran-4-yl)pyrrolidin-3-yl]carbonyl}-5-[(4-methylpiperazin-1-yl)carbonyl]pyrrolidin-3-yl}-N-(4-methylcyclohexyl)acetamide] | 0.1 to 10 nM
10 | CN1CCN(C(=O)[C@H]2C[C@H](N(C(=O)[C@@H]3CCCO3)C3CCC(C)(C)CC3)CN2C(=O)[C@@H]2CN(C3CC3)C[C@H]2c2ccc(Cl)cc2)CC1 [Example 55, (2S)-N-{(3S,5R)-1-{[(3S,4R)-4-(4-chlorophenyl)-1-cyclopropylpyrrolidin-3yl]carbonyl}-5-[(4-methylpiperazin-1-yl)carbonyl]pyrrolidin-3-yl}-N-(4,4-dimethylcyclohexyl)tetrahydrofuran-2-carboxamide] | 10 to 100 nM
11 | CN1CCN(C(=O)[C@@H]2C[C@H](N(C(=O)C(C)(C)CO)C3CCC(C)(C)CC3)CN2C(=O)[C@@H]2CN(C3CC3)C[C@H]2c2ccc(Cl)cc2)CC1 [Example 58, N-{(3S,5S)-1-{[(3S,4R)-4-(4-chlorophenyl)-1-cyclopropylpyrrolidin-3-yl]carbonyl}-5-[(4-methylpiperazin-1-yl)carbonyl]pyrrolidin-3-yl}-N-(4,4-dimethylcyclohexyl)-3-hydroxy-2,2-dimethylpropanamide] | 0.1 to 10 nM
12 | CN1CCN(C(=O)[C@@H]2C[C@H](N(C(=O)C(C)(C)CO)[C@H]3CC[C@@H](C)CC3)CN2C(=O)[C@@H]2CN(C3CC3)C[C@H]2c2ccc(Cl)cc2)CC1 [Example 59, N-{(3S,5S)-1-{[(3S,4R)-4-(4-chlorophenyl)-1-cyclopropylpyrrolidin-3-yl]carbonyl}-5-[(4-methylpiperazin-1-yl)carbonyl]pyrrolidin-3-yl}-N-(cis-4-methylcyclohexyl)-3-hydroxy-2,2-dimethylpropanamide] | 0.1 to 10 nM
13 | CN1CCN(C(=O)[C@@H]2C[C@H](N(C(=O)C(C)(C)CO)[C@H]3CC[C@@H](C)CC3)CN2C(=O)[C@@H]2CN(C3CC3)C[C@H]2c2ccc(F)cc2F)CC1 [Example 60, N-{(3S,5S)-1-{[(3S,4R)-1-cyclopropyl-4-(2,4-difluorophenyl)pyrrolidin-3-yl]carbonyl}-5-[(4-methylpiperazin-1-yl)carbonyl]pyrrolidin-3-yl}-N-(cis-4-methylcyclohexyl)-3-hydroxy-2,2-dimethylpropanamide] | 0.1 to 10 nM
14 | CC(=O)N([C@H]1C[C@H](C(=O)N2CCN(C)CC2)N(C(=O)[C@@H]2CN(C(C)C)C[C@H]2c2ccc(Cl)cc2)C1)[C@H]1CC[C@@H](C)CC1 [Example 62, N-{(3S,5R)-1-{[(3S,4R)-4-(4-chlorophenyl)-1-isopropylpyrrolidin-3-yl]carbonyl}-5-[(4-methylpiperazin-1-yl)carbonyl]pyrrolidin-3-yl}-N-(cis-4-methylcyclohexyl)acetamide] | 10 to 100 nM
15 | Cc1ccc(N2C[C@@H](C(=O)N3C[C@@H](N(C(=O)C(C)(C)C)C4CCC(C)(C)CC4)C[C@H]3C(=O)N3CCN(C)CC3)[C@H](c3ccc(Cl)cc3)C2)nn1 [Example 63, N-{(3S,5S)-1-{[(3S,4R)-4-(4-chlorophenyl)-1-(6-methylpyridazine-3-yl)pyrrolidin-3-yl]carbonyl}-5-[(4-methylpiperazin-1-yl)carbonyl]pyrrolidin-3-yl}-N-(4,4-dimethylcyclohexyl)-2,2-dimethylpropanamide] | 10 to 100 nM
16 | CN1CCN(C(=O)[C@@H]2C[C@H](N(C(=O)C(C)(C)C)C3CCC(C)(C)CC3)CN2C(=O)[C@@H]2CN(c3ccccn3)C[C@H]2c2ccc(Cl)cc2)CC1 [Example 64, N-{(3S,5S)-1-{[(3S,4R)-4-(4-chlorophenyl)-1-pyridine-2-ylpyrrolidin-3-yl]carbonyl}-5-[(4-methylpiperazin-1-yl)carbonyl]pyrrolidin-3-yl}-N-(4,4-dimethylcyclohexyl)-2,2-dimethylpropanamide] | 10 to 100 nM
17 | CC1CCC(N(C(=O)C2CCCO2)C2CC(C(=O)N3CCN(C)CC3)N(C(=O)C3CN(c4cccnn4)CC3c3ccc(F)cc3F)C2)CC1 (stereo not shown) [Example 66] | 0.1 to 10 nM
18 | CN1CCN(C(=O)[C@@H]2C[C@H](N(C(=O)C(C)(C)C)C3CCC(C)(C)CC3)CN2C(=O)[C@@H]2CN(c3ncccn3)C[C@H]2c2ccc(Cl)cc2)CC1 [Example 67, N-{(3S,5S)-1-{[(3S,4R)-4-(4-chlorophenyl)-1-pyrimidine-2-ylpyrrolidin-3-yl]carbonyl}-5-[(4-methylpiperazin-1-yl)carbonyl]pyrrolidin-3-yl}-N-(4,4-dimethylcyclohexyl)-2,2-dimethylpropanamide] | 1000 to 10000 nM
19 | CN1CCN(C(=O)[C@@H]2C[C@H](N(C(=O)C(C)(C)C)C3CCC(C)(C)CC3)CN2C(=O)[C@@H]2CN(c3nccs3)C[C@H]2c2ccc(Cl)cc2)CC1 [Example 70, N-{(3S,5S)-1-{[(3S,4R)-4-(4-chlorophenyl)-1-(1,3-thiazole-2-yl)pyrrolidin-3-yl]carbonyl}-5-[(4-methylpiperazin-1-yl)carbonyl]pyrrolidin-3-yl}-N-(4,4-dimethylcyclohexyl)-2,2-dimethylpropanamide] | 100 to 1000 nM
